Source: patent US11840686B2, “Modulation of prekallikrein (PKK) expression” (Ionis Pharmaceuticals, Inc., priority 2013, dated 2023)
Strand notation (5' to 3'): a small letter for the sugar, then the base; units joined by * are phosphorothioate-linked, units joined directly phosphodiester-linked; [ ] holds rarer units or linkages, { } end groups; capitals alone tell only the bases. e = 2'-O-(2-methoxyethyl) (MOE); [5mC] = 5-methylcytosine; d = 2'-deoxy (DNA)

Experiments:
[1] = tested on: human PKK mRNA; assay: Dose-dependent antisense inhibition of human PKK in HepaRG cells, 0.19-5.00 uM (Example 5); type: cell-based; details: HepaRG cells; for percent inhibition of PKK mRNA, 0.19 μM: 0.19 μM antisense oligonucleotide; for percent inhibition of PKK mRNA, 0.56 μM: 0.56 μM antisense oligonucleotide; for percent inhibition of PKK mRNA, 1.67 μM: 1.67 μM antisense oligonucleotide; for percent inhibition of PKK mRNA, 5.00 μM: 5.00 μM antisense oligonucleotide
Procedure, shortened: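 HepaRG cells (20,000/well) were electroporated with antisense oligonucleotide at 0.19, 0.56, 1.67 and 5.00 μM and treated for about 16 hours. PKK mRNA was quantified by qRT-PCR with primer probe set RTS3454, normalised to RIBOGREEN total RNA, and IC50 was derived per oligonucleotide.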

[2] = tested on: human PKK mRNA; assay: Antisense inhibition of human PKK mRNA in HepaRG cells, 5,000 nM (Example 2); type: cell-based; details: HepaRG cells, 5,000 nM antisense oligonucleotide, 5-10-5 gapmers
Procedure, shortened: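 HepaRG cells, 20,000 per well, were electroporated with 5,000 nM MOE gapmer (phosphorothioate, 5-methylcytosine) and incubated about 24 hours. PKK mRNA was quantified by qRT-PCR with primer probe set RTS3454, normalized to RIBOGREEN total RNA, and expressed as percent inhibition versus untreated controls.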

[3] = electroporation, approximately 16 hours, Table 37
[4] = electroporation, approximately 16 hours, Table 35
[5] = electroporation, approximately 16 hours, Table 40
[6] = 4 point dose response, Table 40
[7] = electroporation, approximately 16 hours, Table 36
[8] = electroporation, approximately 16 hours, Table 38

## 546939 (eG*e[5mC]*e[5mC]*eA*eT*d[5mC]*dT*dG*dG*dT*dT*dA*dG*d[5mC]*d[5mC]*eT*e[5mC]*e[5mC]*eG*eA; antisense) [compound 546939]
[1]; [3]
  percent inhibition of PKK at 0.19 μM: 1%
  percent inhibition of PKK at 0.56 μM: 66%
  percent inhibition of PKK at 1.67 μM: 86%
  percent inhibition of PKK at 5.00 μM: 90%
[1]; 4 point dose response, Table 37
  IC50: 600 nM
[1]
  percent inhibition of PKK mRNA, 0.19 μM: 16%
  percent inhibition of PKK mRNA, 0.56 μM: 71%
  percent inhibition of PKK mRNA, 1.67 μM: 96%
  percent inhibition of PKK mRNA, 5.00 μM: 95%
[1]; 0.19-5.00 μM
  IC50: 400 nM
[2]; Table 16
  % inhibition: 89%

## 546967 (e[5mC]*eA*e[5mC]*e[5mC]*eG*d[5mC]*dG*d[5mC]*dG*dA*dA*dT*dG*d[5mC]*d[5mC]*eT*eG*e[5mC]*e[5mC]*eT; antisense) [compound 546967]
[1]; [4]
  percent inhibition of PKK at 0.19 μM: 20%
  percent inhibition of PKK at 0.56 μM: 39%
  percent inhibition of PKK at 1.67 μM: 76%
  percent inhibition of PKK at 5.00 μM: 71%
[1]; electroporation, approximately 16 hours, Table 41
  percent inhibition of PKK at 5.00 μM: 92%
[1]; 0.19 0μM, electroporation, approximately 16 hours, Table 41
  percent inhibition of PKK at 0.19 0μM: 22%
[1]; 0.56 0μM, electroporation, approximately 16 hours, Table 41
  percent inhibition of PKK at 0.56 0μM: 45%
[1]; 1.67 1μM, electroporation, approximately 16 hours, Table 41
  percent inhibition of PKK at 1.67 1μM: 74%
[1]; 4 point dose response, Table 35
  IC50: 700 nM
[1]; 4 point dose response, Table 41
  IC50: 700 nM
[2]; Table 16
  % inhibition: 93%

## 546980 (eA*eG*e[5mC]*e[5mC]*e[5mC]*dT*d[5mC]*dA*dA*dT*dT*dG*dT*dT*dG*e[5mC]*eT*eG*eG*eT; antisense) [compound 546980]
[1]; [5]
  percent inhibition of PKK at 0.19 μM: 0%
  percent inhibition of PKK at 0.56 μM: 18%
  percent inhibition of PKK at 1.67 μM: 29%
  percent inhibition of PKK at 5.00 μM: 80%
[1]; [6]
  IC50: 2200 nM
[2]; Table 16
  % inhibition: 79%

## 546986 (e[5mC]*eA*eG*eG*eA*dT*dA*dG*dA*dA*d[5mC]*dT*dG*dA*dT*eG*eG*eT*e[5mC]*e[5mC]; antisense) [compound 546986]
[1]; [7]
  percent inhibition of PKK at 0.19 μM: 31%
  percent inhibition of PKK at 0.56 μM: 49%
  percent inhibition of PKK at 1.67 μM: 77%
  percent inhibition of PKK at 5.00 μM: 89%
[1]; 4 point dose response, Table 36
  IC50: 500 nM
[1]
  percent inhibition of PKK mRNA, 0.19 μM: 7%
  percent inhibition of PKK mRNA, 0.56 μM: 28%
  percent inhibition of PKK mRNA, 1.67 μM: 69%
  percent inhibition of PKK mRNA, 5.00 μM: 86%
[1]; 0.19-5.00 μM
  IC50: 1100 nM
[2]; Table 16
  % inhibition: 91%

## 547006 (e[5mC]*eG*e[5mC]*e[5mC]*eA*dT*d[5mC]*dT*dG*d[5mC]*d[5mC]*d[5mC]*dT*dG*dT*eA*e[5mC]*eA*eG*eA; antisense) [compound 547006]
[1]; [8]
  percent inhibition of PKK at 0.19 μM: 0%
  percent inhibition of PKK at 0.56 μM: 0%
  percent inhibition of PKK at 1.67 μM: 54%
  percent inhibition of PKK at 5.00 μM: 77%
[1]; 4 point dose response, Table 38
  IC50: 1500 nM
[2]; Table 17
  % inhibition: 39%

## 547009 (eA*eA*eT*eT*eG*dG*dT*dG*dG*dT*dG*dG*dG*dA*dT*eT*eG*eG*eT*eG; antisense) [compound 547009]
[1]; [5]
  percent inhibition of PKK at 0.19 μM: 0%
  percent inhibition of PKK at 0.56 μM: 9%
  percent inhibition of PKK at 1.67 μM: 21%
  percent inhibition of PKK at 5.00 μM: 63%
[1]; [6]
  IC50: 3600 nM
[2]; Table 17
  % inhibition: 73%

## 547019 (eG*eA*eT*e[5mC]*eG*dG*dT*dG*dG*dT*dG*dG*dG*dA*dT*eT*eG*eG*eT*e[5mC]; antisense) [compound 547019]
[1]; [5]
  percent inhibition of PKK at 0.19 μM: 0%
  percent inhibition of PKK at 0.56 μM: 6%
  percent inhibition of PKK at 1.67 μM: 54%
  percent inhibition of PKK at 5.00 μM: 86%
[1]; [6]
  IC50: 1600 nM
[2]; Table 17
  % inhibition: 83%
